Test results from US20040106545A1, “Compounds and methods for modulating cell adhesion” (priority 1996, published 2004).
Read-outs that look alike come from different tables or passages of the source. Blank lines part the entries; values can stand above or below the compound they belong to. Positions of bridges follow the written chain, without caps; N, C: chain ends. Residues, ends and D or L forms follow the SMILES beside them. *: point of attachment. For = O=C*

Tests used:
[1] = target: T1, chick N-cadherin (Gallus gallus, UniProt P10288); assay: Neurite outgrowth of rat cerebellar neurons on N-cadherin expressing 3T3 monolayers (Example 15); format: cell-based; conditions: for inhibition at 250 µg/mL / inhibition of N-cadherin dependent neurite outgrowth (in words): 250 μg/mL; for inhibition at 250 µg/mL / inhibition at 125 µg/mL: 16-18 hours, read-out: % Inhibition of N-Cadherin Dependent Neurite Outgrowth; for inhibition at 125 µg/mL: 125 μg/mL; for inhibitory activity on N-cadherin dependent neurite outgrowth, structure/activity statements: Tables 8 and 9; for activity on N-cadherin dependent neurite outgrowth (in words): 125 micrograms/mL or below; for reduction in inhibitory activity on flanking HAV with E-cadherin amino acids: 250 μg/mL (Table 8)
T1 construct: expressed in transfected cells; host or cells: 3T3 fibroblasts (monolayer); rat post-natal day 2-3 cerebellar neurons plated on top
T1 sequence (P10288 165-912): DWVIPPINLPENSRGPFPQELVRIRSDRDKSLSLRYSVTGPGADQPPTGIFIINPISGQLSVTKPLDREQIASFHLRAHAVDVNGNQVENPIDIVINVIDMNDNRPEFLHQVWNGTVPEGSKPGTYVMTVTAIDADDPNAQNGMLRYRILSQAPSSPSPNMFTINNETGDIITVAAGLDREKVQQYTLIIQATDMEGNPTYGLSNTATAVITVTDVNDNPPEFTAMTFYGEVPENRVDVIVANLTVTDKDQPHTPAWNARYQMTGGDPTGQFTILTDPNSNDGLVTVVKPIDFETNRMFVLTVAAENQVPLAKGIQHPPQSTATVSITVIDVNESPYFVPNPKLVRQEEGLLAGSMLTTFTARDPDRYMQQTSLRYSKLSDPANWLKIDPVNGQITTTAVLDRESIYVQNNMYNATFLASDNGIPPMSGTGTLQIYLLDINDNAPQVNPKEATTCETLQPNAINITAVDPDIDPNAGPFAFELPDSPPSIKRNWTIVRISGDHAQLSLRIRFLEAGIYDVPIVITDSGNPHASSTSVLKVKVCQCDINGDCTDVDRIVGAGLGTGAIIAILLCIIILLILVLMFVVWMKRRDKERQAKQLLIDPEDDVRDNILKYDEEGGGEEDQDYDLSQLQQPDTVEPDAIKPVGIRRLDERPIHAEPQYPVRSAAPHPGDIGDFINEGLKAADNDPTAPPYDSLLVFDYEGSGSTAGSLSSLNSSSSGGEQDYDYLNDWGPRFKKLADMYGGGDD
Description: Cell culture and neurite outgrowth assays. Co-cultures of cerebellar neurons on monolayers of control 3T3 cells and monolayers of transfected 3T3 cells that express physiological levels of chick N-cadherin or human L1 were established as previously described (Williams et al., Neuron 13:583-594, 1994). In brief, 80,000 3T3 cells (control and transfected) were plated into individual chambers of an eight-chamber tissue culture slide coated with polylysine and fibronectin and cultured in DMEM/10% FCS. After 24 hours, when confluent monolayers had formed, the medium was removed and 3000 cerebellar neurons isolated from post-natal day 2-3 rats were plated into each well in SATO media (Doherty et al., Nature 343:464-466, 1990) supplemented with 2% FCS. All of the test peptides were added immediately before the neurons as a 2× stock prepared in SATO/2% FCS. The co-cultures were maintained for 16-18 hours, at which time they were fixed and immunostained for GAP-43 which is present only in the neurons and delineates the neuritic processes. The mean length of the longest neurite per cell was measured for 150-200 neurons sampled in replicate cultures as previously described (Williams et al., Neuron 13:583-594, 1994). […] Dose-response curves were evaluated and the EC50 values determined.

[2] = system: Madin Darby canine kidney (MDCK) cells; format: cell-based; conditions: for EC50, decrease of electrical resistance across MDCK cell monolayer: 18 hours
Description: Yet another assay evaluates the effect of a modulating agent on the electrical resistance across a monolayer of cells. For example, Madin Darby canine kidney (MDCK) cells can be exposed to the modulating agent dissolved in medium (e.g., at a final concentration of 0.5 mg/ml for a period of 24 hours). The effect on electrical resistance can be measured using standard techniques. This assay evaluates the effect of a modulating agent on tight junction formation in epithelial cells. In general, the presence of 500 μg/mL modulating agent should result in a statistically significant decrease in electrical resistance after 24 hours.
Madin Darby canine kidney (MDCK) cells were plated in Millicells (Millipore, Bedford, Mass.), at a density of 300,000 cells per Millicell, and cultured in Dulbecco's Modified Eagle Medium (DMEM; Sigma, St. Louis, Mo.) containing 5% fetal calf serum (Sigma, St. Louis, Mo.) until monolayers formed. Monolayers were exposed to the modulating agent dissolved in medium. The electrical resistance was measured using the EVOM device (World Precision Instruments, Sarasota, Fla.). At the time of measurement, fresh medium, with or without the modulating agent, may be added to the Millicells.

[3] = system: MDA-MB231; assay: Cytotoxicity, MTT assay, MDA-MB231; format: cell-based, human
Description: (§1) N—Ac-CHAVC-NH2 (SEQ ID NO:10) and the control peptide N—Ac-CHGVC-NH2 (SEQ ID NO:11) were evaluated for possible cytotoxic effects on human microvascular endothelial (HMVEC; Clonetics), human umbilical vein endothelial (HUVEC; ATCC #CRL-1730), IAFp2 (human fibroblast cell line; Institute Armand-Frapier, Montreal, Quebec), WI-38 (human fibroblast cell line; ATCC #CCL-75), MDA-MB231 (human breast cancer cell line; ATCC #HTB-26), and PC-3 (human prostate cancer cell line; ATCC #CRL-1435) cells utilizing the MTT assay (Plumb et al., Cancer Res. 49:4435-4440, 1989). Neither of the peptides was cytotoxic at concentrations up to and including 100 μM. Similarly, neither of the peptides was capable of inhibiting the proliferation of the above cell lines at concentrations up to 100 μM, as judged by ^3H-thymidine incorporation assays.

[4] = system: PC-3; assay: Cytotoxicity, MTT assay, PC-3; format: cell-based, human
Description: as §1

[5] = system: HUVEC; format: cell-based, human; conditions: 3 h
Description: as §1

[6] = system: PC-3; format: cell-based, human; conditions: 3 h
Description: as §1

[7] = system: HMVEC; format: cell-based, human; conditions: 3 h
Description: as §1

[8] = system: WI-38; format: cell-based, human; conditions: 3 h
Description: as §1

[9] = system: MDA-MB231; format: cell-based, human; conditions: 3 h
Description: as §1

[10] = system: IAFp2; format: cell-based, human; conditions: 3 h
Description: as §1

[11] = target: T2, N-cadherin (Gallus gallus, UniProt P10288); assay: Neurite outgrowth inhibition, rat neurons (Example 21); format: cell-based; conditions: 500 μg/mL
T2 construct: expressed in transfected cells; host or cells: 3T3 fibroblasts (monolayer)
T2 sequence (P10288 165-912): T1 sequence (P10288 165-912)

Compound: CC(C)[C@@H]1NC(=O)[C@H](C)NC(=O)[C@H](Cc2c[nH]cn2)NC(=O)[C@@H](NC=O)CSSC[C@@H](C(=O)N[C@@H](CO)C(N)=O)NC1=O [H—C(O)—NH—CHAVCS—NH2] (For-CHAVCS-NH2; disulfide 1-5 (inferred))
inhibition at 250 µg/mL [1]: 75.8 ± 5.6%

Compound: CC(=O)N[C@H]1CSSC[C@@H](C(N)=O)NC(=O)[C@H](Cc2c[nH]cn2)NC(=O)CNC(=O)[C@H](C(C)C)NC1=O [N—Ac—CVGHC—NH2] (Ac-CVGHC-NH2; disulfide 1-5)
IC50 [3]: > 100 µM | IC50 [4]: > 100 µM | IC50 [5]: 30 µM | IC50 [6]: > 100 µM | IC50 [7]: > 100 µM | IC50 [8]: > 100 µM | IC50 [9]: > 100 µM | IC50 [10]: > 100 µM

Compound: N—Ac—CAHAVC—NH2: cyclic peptide, SEQ ID NO:22 (Ac-CAHAVC-NH2; disulfide 1-6 (inferred))
inhibition of N-cadherin dependent neurite outgrowth (in words) [1]: potent inhibitors of neurite outgrowth | activity on N-cadherin dependent neurite outgrowth (in words) [1]: lost activity | inhibitory activity on N-cadherin dependent neurite outgrowth, structure/activity statements [1]: little affect

Compound: N—Ac—CHAVCE—NH2: cyclic peptide, SEQ ID NO:92 (Ac-CHAVCE-NH2; disulfide 1-5 (inferred))
EC50, decrease of electrical resistance across MDCK cell monolayer [2]: INACTIVE

Compound: N—Ac—CLFSHAVC—NH2 (Ac-CLFSHAVC-NH2; disulfide 1-8 (inferred))
effect on electrical resistance across MDCK cells (in words) [2]: loss of activity in this assay | EC50, decrease of electrical resistance across MDCK cell monolayer [2]: INACTIVE

Compound: N—Ac—CLRAHAVC—NH2: cyclic peptide, SEQ ID NO:30 (Ac-CLRAHAVC-NH2; disulfide 1-8 (inferred))
inhibitory activity on N-cadherin dependent neurite outgrowth, structure/activity statements [1]: detrimental affect

Compound: N—Ac—CLRAHAVDC—NH2: cyclic peptide, SEQ ID NO:32 (Ac-CLRAHAVDC-NH2; disulfide 1-9 (inferred))
inhibition of N-cadherin dependent neurite outgrowth (in words) [1]: potent inhibitors of neurite outgrowth | activity on N-cadherin dependent neurite outgrowth (in words) [1]: lost activity | inhibitory activity on N-cadherin dependent neurite outgrowth, structure/activity statements [1]: partial recovery of activity

Compound: N—Ac—CRAHAVDC—NH2: cyclic peptide, SEQ ID NO:28 (Ac-CRAHAVDC-NH2; disulfide 1-8 (inferred))
inhibition of neurite outgrowth [11]: (inhibition observed | inhibitory activity on N-cadherin dependent neurite outgrowth, structure/activity statements [1]: completely eliminated inhibitory activity

Compound: N—Ac—CSHAVSC—NH2: cyclic peptide, SEQ ID NO:40 (Ac-CSHAVSC-NH2; disulfide 1-7 (inferred))
reduction in inhibitory activity on flanking HAV with E-cadherin amino acids [1]: complete | EC50, decrease of electrical resistance across MDCK cell monolayer [2]: INACTIVE

Continued, in another order:

inhibition at 250 µg/mL [1]: 74.7 ± 10.5%
Compound: CC(C)[C@@H]1NC(=O)[C@H](C)NC(=O)[C@H](Cc2c[nH]cn2)NC(=O)[C@@H](NS(C)(=O)=O)CSSC[C@@H](C(N)=O)NC1=O [CH3—SO2—NH—CHAVC—NH2]
effect on electrical resistance across MDCK cells (in words) [2]: complete loss of activity | EC50, decrease of electrical resistance across MDCK cell monolayer [2]: INACTIVE

IC50 [6]: > 100 µM | IC50 [7]: > 100 µM | IC50 [9]: > 100 µM | IC50 [10]: > 100 µM
Compound: CC(=O)N[C@H]1CSSC[C@@H](C(N)=O)NC(=O)[C@H](CC(=O)O)NC(=O)[C@H](C(C)C)NC(=O)CNC(=O)[C@H](Cc2c[nH]cn2)NC(=O)[C@H](C)NC1=O [N—Ac—CAHGVDC—NH2] (Ac-CAHGVDC-NH2; disulfide 1-7)
IC50 [3]: > 100 µM | IC50 [4]: > 100 µM | IC50 [5]: > 100 µM | IC50 [8]: > 100 µM

inhibition at 125 µg/mL [1]: 58 ± 4.3% | inhibitory activity on N-cadherin dependent neurite outgrowth, structure/activity statements [1]: potent inhibitors
Compound: CC(=O)N[C@H]1CSSC[C@@H](C(N)=O)NC(=O)[C@@H]2CCCN2C(=O)[C@H](C(C)C)NC(=O)[C@H](C)NC(=O)[C@H](Cc2c[nH]cn2)NC1=O [N—Ac—CHAVPC—NH2] (Ac-CHAVPC-NH2; disulfide 1-6)

inhibition at 125 µg/mL [1]: 64.9 ± 1.9% | inhibition at 250 µg/mL [1]: 64.9% | inhibitory activity on N-cadherin dependent neurite outgrowth, structure/activity statements [1]: potent inhibitors
Compound: CC(=O)N[C@H]1CSSC[C@@H](C(N)=O)NC(=O)[C@H](Cc2ccc(O)cc2)NC(=O)[C@H](C(C)C)NC(=O)[C@H](C)NC(=O)[C@H](Cc2c[nH]cn2)NC1=O [N—Ac—CHAVYC—NH2] (Ac-CHAVYC-NH2; disulfide 1-6)

% inhibition of N-cadherin dependent neurite outgrowth [1]: 68.8+/−4.1%
Compound: N—Ac-LRAHAVDING-NH2: linear 10-mer, SEQ ID NO:79 [reference compound]

inhibitory activity on N-cadherin dependent neurite outgrowth, structure/activity statements [1]: completely abrogates activity
Compound: N—Ac—CHAVDINGC—NH2: cyclic peptide, SEQ ID NO:76 (Ac-CHAVDINGC-NH2; disulfide 1-9 (inferred))

reduction in inhibitory activity on flanking HAV with E-cadherin amino acids [1]: substantial
Compound: N—Ac—CHAVSSC—NH2: cyclic peptide, SEQ ID NO:44 (Ac-CHAVSSC-NH2; disulfide 1-7 (inferred))
EC50, decrease of electrical resistance across MDCK cell monolayer [2]: INACTIVE
